The target in experiment [1] is Receptor tyrosine-protein kinase erbB-2 (Homo sapiens, UniProt P04626). The experiment in a line: Selectivity interaction (KinomeScan (DiscoverX)) EUB0001619a ERBB2. The settings on record: at 1 µM.
The target in experiment [2] is Calcium/calmodulin-dependent protein kinase type 1D (Homo sapiens) (UniProt Q8IU85). As to the kind of experiment: Selectivity interaction (KinomeScan (DiscoverX)) EUB0000607a CAMK1D. The settings on record: at 10 µM.
Experiment [3] addresses Tyrosine-protein kinase receptor Tie-1 (Homo sapiens) (UniProt P35590). As to the kind of experiment: Selectivity interaction (KinomeScan (DiscoverX)) EUB0000607a TIE1. Particulars: at 10 µM.
Experiment [4] has as its target Serine/threonine-protein kinase tousled-like 2 (Homo sapiens) (UniProt Q86UE8). As to the kind of experiment: Selectivity interaction (ActivX KiNativ screen (kinase selectivity in THP-1 cell lysates)) EUB0000639a TLK2. The class given is subcellular. Particulars: lysate, at 0.04 µM.
Experiment [5] concerns the target T1, Inhibitor of nuclear factor kappa-B kinase subunit epsilon (Homo sapiens) (UniProt Q14164).
T1 sequence (whole entry): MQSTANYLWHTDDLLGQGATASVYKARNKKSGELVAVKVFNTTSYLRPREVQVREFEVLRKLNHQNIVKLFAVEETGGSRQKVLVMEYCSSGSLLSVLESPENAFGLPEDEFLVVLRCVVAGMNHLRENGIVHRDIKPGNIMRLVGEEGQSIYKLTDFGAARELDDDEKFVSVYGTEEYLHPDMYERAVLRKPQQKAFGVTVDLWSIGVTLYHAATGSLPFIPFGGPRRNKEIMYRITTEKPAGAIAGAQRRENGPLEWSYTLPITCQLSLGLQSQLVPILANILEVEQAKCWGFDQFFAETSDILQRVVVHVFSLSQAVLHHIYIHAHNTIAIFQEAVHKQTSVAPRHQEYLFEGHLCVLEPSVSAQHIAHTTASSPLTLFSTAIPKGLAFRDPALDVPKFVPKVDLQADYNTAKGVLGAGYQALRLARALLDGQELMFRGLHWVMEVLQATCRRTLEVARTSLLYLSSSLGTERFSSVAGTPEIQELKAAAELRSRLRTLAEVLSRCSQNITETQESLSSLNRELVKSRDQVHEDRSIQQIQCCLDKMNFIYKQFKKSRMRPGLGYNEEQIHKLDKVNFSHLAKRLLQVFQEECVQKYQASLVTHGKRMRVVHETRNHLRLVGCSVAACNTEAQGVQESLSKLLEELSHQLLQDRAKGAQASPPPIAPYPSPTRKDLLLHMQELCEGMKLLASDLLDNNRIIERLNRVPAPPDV
As to the kind of experiment: Selectivity interaction (ActivX KiNativ screen (kinase selectivity in THP-1 cell lysates)) EUB0000639a IKBKE. Format: subcellular. The settings on record: lysate, at 5 µM.

Experiment [6] concerns the target T2, Histone-arginine methyltransferase CARM1 (Homo sapiens) (UniProt Q86X55).
T2 sequence (whole entry): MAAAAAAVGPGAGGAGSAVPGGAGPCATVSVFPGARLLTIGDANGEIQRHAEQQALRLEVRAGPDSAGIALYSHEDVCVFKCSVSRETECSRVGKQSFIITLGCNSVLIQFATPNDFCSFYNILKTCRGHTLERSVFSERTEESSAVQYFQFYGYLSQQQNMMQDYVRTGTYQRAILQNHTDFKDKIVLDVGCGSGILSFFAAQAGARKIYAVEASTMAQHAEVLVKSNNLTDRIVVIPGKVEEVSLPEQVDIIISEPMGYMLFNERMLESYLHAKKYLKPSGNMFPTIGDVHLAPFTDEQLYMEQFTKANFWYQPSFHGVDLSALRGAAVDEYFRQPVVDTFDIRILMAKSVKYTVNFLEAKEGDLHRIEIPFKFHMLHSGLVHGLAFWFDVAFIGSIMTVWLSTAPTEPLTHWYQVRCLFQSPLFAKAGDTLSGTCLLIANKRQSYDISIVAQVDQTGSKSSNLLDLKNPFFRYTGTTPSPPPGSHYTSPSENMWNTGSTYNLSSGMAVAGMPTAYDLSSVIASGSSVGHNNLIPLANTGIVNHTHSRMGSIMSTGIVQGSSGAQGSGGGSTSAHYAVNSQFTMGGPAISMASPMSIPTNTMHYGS
The settings on record: at 1 µM.

Experiment [7] is described as follows: Selectivity interaction (KinomeScan (DiscoverX)) EUB0000655a CDK2H. The settings on record: at 10 µM.
Experiment [8] deals with Calcium/calmodulin-dependent protein kinase type II subunit gamma (Homo sapiens) (UniProt Q13555). The experiment in a line: Selectivity interaction (KinomeScan (DiscoverX)) EUB0001079a CAMK2G. Particulars: at 1 µM.
For experiment [9], the target named is Cyclin-dependent kinase 16 (Homo sapiens) (UniProt Q00536). As to the kind of experiment: Selectivity interaction (KinomeScan (DiscoverX)) EUB0000229b CDK16. The settings on record: at 10 µM.
The target of experiment [10] is Tyrosine-protein kinase Lck (Homo sapiens, UniProt P06239). The experiment in a line: Selectivity interaction (KinomeScan (DiscoverX)) EUB0000229b LCK. Particulars: at 10 µM.
Experiment [11] concerns the target Serine/threonine-protein kinase tousled-like 2 (Homo sapiens) (UniProt Q86UE8). As to the kind of experiment: Selectivity interaction (Kinase panel (KiNativ target engagement assay in Jurkat cells)) EUB0001635a TLK2. The class given is cell-based. The settings on record: at 1 µM.
Experiment [12] deals with T3, Calcium/calmodulin-dependent protein kinase type IV (Homo sapiens) (UniProt Q16566).
T3 sequence (whole entry): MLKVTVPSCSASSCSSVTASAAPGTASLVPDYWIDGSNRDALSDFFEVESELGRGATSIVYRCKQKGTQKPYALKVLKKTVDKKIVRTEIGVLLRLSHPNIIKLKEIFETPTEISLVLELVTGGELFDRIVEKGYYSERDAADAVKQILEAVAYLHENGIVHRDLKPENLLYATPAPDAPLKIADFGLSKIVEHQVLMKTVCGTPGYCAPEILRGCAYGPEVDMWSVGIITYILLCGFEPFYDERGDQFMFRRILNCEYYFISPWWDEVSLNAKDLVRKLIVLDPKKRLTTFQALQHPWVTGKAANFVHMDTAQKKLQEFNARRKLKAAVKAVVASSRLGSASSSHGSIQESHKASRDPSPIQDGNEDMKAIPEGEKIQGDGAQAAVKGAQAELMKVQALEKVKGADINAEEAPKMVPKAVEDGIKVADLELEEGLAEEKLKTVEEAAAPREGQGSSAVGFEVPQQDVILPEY
The experiment in a line: Selectivity interaction (Kinase panel (KiNativ target engagement assay in Jurkat cells)) EUB0001635a CAMK4. The settings on record: Selectivity number of off-targets 0.0, Selectivity number of targets 233.0, Source Knowledge https://www.sciencedirect.com/science/article/pii/S2451945619300674?via%3Dihub, at 1 µM. The class given is cell-based.

The text below walks through data of ChEMBL document CHEMBL5465560, “Selectivity Literature for EUbOPEN Chemogenomic Library” (2024).

Serine/threonine-protein kinase tousled-like 2 (Homo sapiens), sequence (Q86UE8 whole entry, looked up): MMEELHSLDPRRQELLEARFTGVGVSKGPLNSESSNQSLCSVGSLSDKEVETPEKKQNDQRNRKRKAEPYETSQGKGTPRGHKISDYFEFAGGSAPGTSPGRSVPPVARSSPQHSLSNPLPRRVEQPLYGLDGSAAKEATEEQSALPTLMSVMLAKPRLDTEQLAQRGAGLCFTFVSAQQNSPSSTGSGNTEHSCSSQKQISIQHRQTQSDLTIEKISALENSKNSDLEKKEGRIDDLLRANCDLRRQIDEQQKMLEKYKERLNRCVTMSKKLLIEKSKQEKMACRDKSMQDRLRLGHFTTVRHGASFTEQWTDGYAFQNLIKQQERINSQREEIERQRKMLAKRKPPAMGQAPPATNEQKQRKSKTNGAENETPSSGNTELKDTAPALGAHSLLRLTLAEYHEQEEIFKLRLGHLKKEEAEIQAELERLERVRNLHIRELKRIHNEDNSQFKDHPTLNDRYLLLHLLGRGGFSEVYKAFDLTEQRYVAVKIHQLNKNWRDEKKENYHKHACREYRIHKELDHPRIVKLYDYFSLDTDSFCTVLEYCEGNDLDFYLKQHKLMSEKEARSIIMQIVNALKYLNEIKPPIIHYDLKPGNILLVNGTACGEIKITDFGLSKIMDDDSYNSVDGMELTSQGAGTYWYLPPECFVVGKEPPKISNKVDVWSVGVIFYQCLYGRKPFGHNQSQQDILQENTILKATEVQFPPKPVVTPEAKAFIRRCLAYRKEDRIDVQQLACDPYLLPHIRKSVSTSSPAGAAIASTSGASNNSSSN
Calcium/calmodulin-dependent protein kinase type 1D (Homo sapiens), sequence (Q8IU85 whole entry, looked up): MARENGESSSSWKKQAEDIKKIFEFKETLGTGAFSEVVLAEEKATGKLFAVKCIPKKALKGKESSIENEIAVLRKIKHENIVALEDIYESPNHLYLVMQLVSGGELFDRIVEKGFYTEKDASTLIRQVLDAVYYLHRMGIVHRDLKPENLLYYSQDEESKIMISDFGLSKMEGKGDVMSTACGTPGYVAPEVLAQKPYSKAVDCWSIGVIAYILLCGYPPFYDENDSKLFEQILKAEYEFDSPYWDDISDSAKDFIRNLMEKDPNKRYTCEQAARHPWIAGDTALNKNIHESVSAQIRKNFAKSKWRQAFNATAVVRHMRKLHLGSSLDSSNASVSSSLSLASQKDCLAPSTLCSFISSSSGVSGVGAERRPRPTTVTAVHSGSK
Receptor tyrosine-protein kinase erbB-2, sequence (P04626 whole entry): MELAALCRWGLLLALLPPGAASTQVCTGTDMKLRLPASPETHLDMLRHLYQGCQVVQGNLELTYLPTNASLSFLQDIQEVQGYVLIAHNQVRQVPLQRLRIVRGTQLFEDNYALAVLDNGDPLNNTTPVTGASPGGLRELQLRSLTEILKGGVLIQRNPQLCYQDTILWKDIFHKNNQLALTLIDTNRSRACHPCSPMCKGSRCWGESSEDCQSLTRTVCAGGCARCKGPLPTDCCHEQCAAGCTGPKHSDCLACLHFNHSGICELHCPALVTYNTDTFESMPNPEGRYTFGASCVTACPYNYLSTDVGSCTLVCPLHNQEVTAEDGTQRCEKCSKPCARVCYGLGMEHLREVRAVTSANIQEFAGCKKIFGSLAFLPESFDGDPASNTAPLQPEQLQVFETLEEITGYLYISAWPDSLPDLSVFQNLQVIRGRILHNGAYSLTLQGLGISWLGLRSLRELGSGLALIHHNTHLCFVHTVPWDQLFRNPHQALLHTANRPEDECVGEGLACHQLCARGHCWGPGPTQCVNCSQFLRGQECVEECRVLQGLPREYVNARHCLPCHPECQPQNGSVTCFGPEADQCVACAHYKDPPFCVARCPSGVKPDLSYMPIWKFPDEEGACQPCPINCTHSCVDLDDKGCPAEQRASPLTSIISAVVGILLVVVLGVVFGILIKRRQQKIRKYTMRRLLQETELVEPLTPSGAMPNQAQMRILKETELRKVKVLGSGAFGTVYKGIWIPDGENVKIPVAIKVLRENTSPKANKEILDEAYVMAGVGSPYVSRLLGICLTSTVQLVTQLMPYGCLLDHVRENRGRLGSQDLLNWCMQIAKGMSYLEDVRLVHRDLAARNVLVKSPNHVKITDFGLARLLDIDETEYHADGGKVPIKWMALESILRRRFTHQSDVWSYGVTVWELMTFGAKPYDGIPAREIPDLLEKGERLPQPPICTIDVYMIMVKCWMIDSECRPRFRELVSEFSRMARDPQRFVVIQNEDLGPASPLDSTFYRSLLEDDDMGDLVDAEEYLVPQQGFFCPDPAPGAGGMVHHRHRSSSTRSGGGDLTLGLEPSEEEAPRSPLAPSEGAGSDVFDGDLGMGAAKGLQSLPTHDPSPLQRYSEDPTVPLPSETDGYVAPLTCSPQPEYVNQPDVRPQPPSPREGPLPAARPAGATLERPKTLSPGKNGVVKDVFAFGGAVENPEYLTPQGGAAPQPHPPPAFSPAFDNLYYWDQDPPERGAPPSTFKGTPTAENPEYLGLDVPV
Tyrosine-protein kinase Lck, sequence (P06239 2-509 limits assumed): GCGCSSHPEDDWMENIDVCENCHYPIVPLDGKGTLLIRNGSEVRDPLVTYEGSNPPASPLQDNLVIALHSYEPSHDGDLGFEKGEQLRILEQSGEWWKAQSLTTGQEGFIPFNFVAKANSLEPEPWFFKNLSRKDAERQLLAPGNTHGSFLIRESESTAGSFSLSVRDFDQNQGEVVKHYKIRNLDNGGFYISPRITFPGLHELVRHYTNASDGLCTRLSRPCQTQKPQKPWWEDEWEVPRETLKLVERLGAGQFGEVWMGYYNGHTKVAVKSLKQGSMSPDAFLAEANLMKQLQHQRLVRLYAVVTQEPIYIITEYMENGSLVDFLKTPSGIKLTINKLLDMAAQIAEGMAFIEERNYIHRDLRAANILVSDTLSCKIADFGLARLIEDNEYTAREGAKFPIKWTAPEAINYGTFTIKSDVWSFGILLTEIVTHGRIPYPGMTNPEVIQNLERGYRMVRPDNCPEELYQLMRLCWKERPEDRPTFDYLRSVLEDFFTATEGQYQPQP
Tyrosine-protein kinase receptor Tie-1 (Homo sapiens), sequence (P35590 whole entry): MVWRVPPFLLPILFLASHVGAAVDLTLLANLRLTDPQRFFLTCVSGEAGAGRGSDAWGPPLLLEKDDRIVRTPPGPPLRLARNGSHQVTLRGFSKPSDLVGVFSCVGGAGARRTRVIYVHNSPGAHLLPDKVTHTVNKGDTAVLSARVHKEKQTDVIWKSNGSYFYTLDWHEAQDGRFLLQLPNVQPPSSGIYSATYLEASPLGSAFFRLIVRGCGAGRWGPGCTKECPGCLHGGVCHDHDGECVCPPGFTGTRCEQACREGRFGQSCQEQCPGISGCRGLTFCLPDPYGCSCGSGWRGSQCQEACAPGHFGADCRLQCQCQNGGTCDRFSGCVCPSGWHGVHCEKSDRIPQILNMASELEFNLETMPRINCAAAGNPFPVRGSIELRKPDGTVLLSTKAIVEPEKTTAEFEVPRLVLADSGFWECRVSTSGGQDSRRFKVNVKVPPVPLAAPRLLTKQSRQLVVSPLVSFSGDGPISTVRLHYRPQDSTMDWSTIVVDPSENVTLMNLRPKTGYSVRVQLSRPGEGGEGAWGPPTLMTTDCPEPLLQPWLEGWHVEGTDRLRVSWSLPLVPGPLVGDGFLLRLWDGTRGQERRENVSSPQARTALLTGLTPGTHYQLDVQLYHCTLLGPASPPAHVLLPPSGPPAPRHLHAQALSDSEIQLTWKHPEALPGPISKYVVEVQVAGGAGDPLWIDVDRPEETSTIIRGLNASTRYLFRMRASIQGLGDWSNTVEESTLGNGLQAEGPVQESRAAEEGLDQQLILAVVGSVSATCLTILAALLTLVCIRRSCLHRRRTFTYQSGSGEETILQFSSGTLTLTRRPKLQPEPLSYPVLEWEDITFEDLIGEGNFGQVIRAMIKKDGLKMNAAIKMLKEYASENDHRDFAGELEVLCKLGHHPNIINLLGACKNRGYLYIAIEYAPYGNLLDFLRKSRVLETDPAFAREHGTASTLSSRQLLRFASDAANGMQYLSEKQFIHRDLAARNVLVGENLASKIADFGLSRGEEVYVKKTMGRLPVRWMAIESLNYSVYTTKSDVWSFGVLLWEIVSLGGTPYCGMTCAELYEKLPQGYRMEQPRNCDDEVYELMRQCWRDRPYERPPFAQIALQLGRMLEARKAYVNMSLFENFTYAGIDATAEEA
Calcium/calmodulin-dependent protein kinase type II subunit gamma (Homo sapiens), sequence (Q13555 whole entry): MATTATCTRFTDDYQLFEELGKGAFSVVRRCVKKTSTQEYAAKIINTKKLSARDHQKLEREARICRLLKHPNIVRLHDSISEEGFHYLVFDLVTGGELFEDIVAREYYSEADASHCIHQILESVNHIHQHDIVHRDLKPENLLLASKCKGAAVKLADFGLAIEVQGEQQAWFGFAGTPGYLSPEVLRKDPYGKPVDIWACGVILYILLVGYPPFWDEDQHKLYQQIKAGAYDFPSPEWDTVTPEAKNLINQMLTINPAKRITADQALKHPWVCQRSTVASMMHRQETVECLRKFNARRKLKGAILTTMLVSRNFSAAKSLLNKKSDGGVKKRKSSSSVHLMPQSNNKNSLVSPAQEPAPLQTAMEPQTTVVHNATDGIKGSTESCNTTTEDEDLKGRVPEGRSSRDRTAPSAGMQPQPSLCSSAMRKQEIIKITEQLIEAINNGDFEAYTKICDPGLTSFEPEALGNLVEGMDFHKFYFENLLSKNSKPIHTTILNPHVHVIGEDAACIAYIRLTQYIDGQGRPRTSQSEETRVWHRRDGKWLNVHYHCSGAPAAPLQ

As to `N#Cc1cccc(-c2c[nH]c3ncnc(N4CCOCC4)c23)c1`, the % of control in experiment [1] was 73%. As for `CNC(=O)Nc1ccc(-c2nc(N3CC4CCC(C3)O4)c3cnn(C4CCC5(CC4)OCCO5)c3n2)cc1`, the % of control stood at 95% in experiment [2] and 98% in experiment [3].

Take `CC[C@@H]1[C@H](F)C(=O)N[C@@H]1COc1nccc2cc(C(N)=O)c(OC)cc12` [ZIMLOVISERTIB]: the values for the % of inhibition in experiment [4] and in experiment [5] were 9.2% and 26.2%, respectively. As for `CNCCN1CCC(c2cc(CN(C)C(=O)c3cccc(Oc4ccccc4)c3)ccn2)CC1`, in experiment [6], the % activity stood at 75%. The compound `CN(C)CCOc1ccc(-c2nc(-c3ccncc3)c(-c3ccc4c(c3)CC/C4=N\O)[nH]2)cc1` yielded a % of control in experiment [7] of 86%. In the case of `Nc1cnc(N2CCc3cc(S(=O)(=O)Nc4c(F)cc(Cl)cc4F)cc(N4CCCC4=O)c32)nc1` [TP-020n], in experiment [8], the % of control is 100%. For the compound `COc1cc(N(C)c2ccnc3ccc(C(F)(F)F)cc23)cc(OC)c1OC`, the % binding was found to be 85% in experiment [9] and 80% in experiment [10]. For the compound `C=CC(=O)Nc1ccc(C(=O)Nc2[nH]nc3c2CN(C(=O)N[C@H](CN(C)C)c2ccccc2)C3(C)C)cc1`, the % of engagement in [11] (Selectivity number of off-targets 0.0, Selectivity number of targets 233.0, Source Knowledge https://www.sciencedirect.com/science/article/pii/S2451945619300674?via%3Dihub) is 6.8%; in experiment [11], 13.7%; in experiment [12], -8.6%.
